Reference: US20230277491A1, “PHARMACEUTICAL COMBINATION COMPRISING GLYCOLIC ACID AND L-ALANINE” (priority 2020, published 2023)

How the values were obtained:
dopaminergic neurons [1] = test: Survival of dopaminergic neurons with paraquat 12.5 μM challenge (Example 5, FIGS. 19, 20); assay type: cell-based, mouse; conditions: for number of TH positive neurons normalized to the control treatment: FIG. 19
Procedure: Dopaminergic neurons were isolated and plated at a concentration of 1.000.000 cells/ml (100 μl/well) in a 96 well plate and cultured in medium with one or more of the various factors indicated, as described in the examples below. The survival of dopaminergic neurons in the presence and absence of various agents of the invention, either with or without paraquat challenge, is shown by the number of TH positive neurons normalized to the control treatment.
Dopaminergic neurons were isolated and plated at a concentration of 1.000.000 cells/ml (100 μl/well) in a 96 well plate. After 3-4 hours incubation at 37° C., 20 μl of medium was removed from each well. (VF=80 μl). Changes in medium and start point of the treatment were on the following day in vitro (DIV). The following protocol was employed to assess the survival of dopaminergic neurons in the presence and absence of various agents of the inventive combination, either with or without paraquat challenge. • DIV.1: Change half of medium N2 (40 μl) with fresh medium N2. • DIV.3: Change half of the medium and start with medium (control) or with medium A containing PB (0.15 mM) and TUDCA (0.5 mM), or with Medium A containing GA (normally 1 mM, 3 mM, or 10 mM) or with Medium A containing GA (1 mM or 3 mM) and PB (0.15 mM) or with Medium A containing GA (5 mM) and TUDCA (0.5 mM) or with Medium A containing PB (0.15 mM). Medium A is N2 medium but without FBS and N2-Supplement. • DIV.5: Second round of control or treatment with different treatments. Half of the medium (40 μl) was replaced by fresh medium A with the different agents. • DIV.7: Paraquat 12.5 μM treatment starts alone or in combination with the treatments explained above. Half of the medium (40 μl) was replaced by fresh medium A with the different treatment combinations or without (control). • DIV.9: Second day of treatment with Paraquat (PQ) 12.5 μM in addition to the other treatments as explained above. • DIV.11: Fixation 2% of PFA during 20 min at 37° C. or overnight at 4° C.
The effect of the different treatments on dopaminergic neurons survival upon exposure to paraquat was assessed through of TH+ neurons after treatment. Briefly, neurons were fixed using 2% paraformaldehyde for immunocytochemical analysis after treatment. Dopaminergic TH^+ neurons per well were identified and counted using an inverted fluorescence microscope (Olympus) under a 20× objective.

dopaminergic neurons [2] = test: Morphology of dopaminergic TH+ neurons in primary mesencephalic culture; assay type: cell-based, mouse; conditions: 5 mM GA, FIG. 14
Procedure: Effect of GA treatment on the morphology of dopaminergic neurons. Fluorescent microscopy images on the left show to TH+ neurons in a primary mesencephalic cell culture with (GA) and without (Control) treatment. […] FIG. 16:
Primary mesencephalic neuronal cell cultures were prepared as previously described. Briefly, E14.5 embryos were obtained from C57JBL6 pregnant mice after cervical dislocation. Brain mesencephali were dissected under the microscope and digested with Trypsin-EDTA 0.12% (Life Technologies, USA) for 7 min. The trypsin reaction was then stopped by adding basic medium (BM), containing Neurobasal A medium (Gibco, USA), 1 mg/mL Pen/Strep, 10% FCS, and […] L-Glutamine, and cells were mechanically dissociated using a fire-polished Pasteur pipette. Medium was fully replaced after 5 min, centrifugation at 1200 rpm, aspiring the supernatant and adding 8 mL of fresh BM to the pellet. Concentration of cells in the medium was estimated using a Neubauer chamber and a 100 μL of medium containing 10^6 cells/mL plated per well in a 96-well plate (Greiner Sensoplate, Germany, EU). […]
[…] The effect of GA and DL on dopaminergic neurons was assessed through semi-automatic quantification of neurite length and width of TH+ neurons after treatment. […] Dopaminergic TH^+ neurons were observed using an inverted fluorescence microscope (Olympus) under a 20× objective.

Compound: O=C(O)CO [GA, 2-hydroxyethanoic acid]
- number of TH positive neurons normalized to the control treatment (dopaminergic neurons [1]; PQ 12.5 μM + 1 mM GA): 0.65
- number of TH positive neurons normalized to the control treatment (dopaminergic neurons [1]; PQ 12.5 μM + 3 mM GA): 0.71
- survival of dopaminergic neurons (rescue) (dopaminergic neurons [1]; PQ 12.5 μM + 5 mM GA alone): certain rescue
- morphology of dopaminergic neurons (neurite and axon length, secondary ramifications) (dopaminergic neurons [2]): increases the length of the neurites and the main axon and the number of secondary ramifications
